Assay results: PubChem BioAssay (NCI)
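At the GI50, growth is halved. At the TGI there is no net growth.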

Legend:
Experiment in all cases: inhibition of tumour cell growth, NCI panel, 384-well format
A498 renal = system: A498 renal
A549 NSCLC = system: A549 NSCLC
ACHN renal = system: ACHN renal
BT-549 breast = system: BT-549 breast
CAKI-1 renal = system: CAKI-1 renal
CCRF-CEM leukemia = system: CCRF-CEM leukemia
DU-145 prostate = system: DU-145 prostate
EKVX NSCLC = system: EKVX NSCLC
HCC-2998 colon = system: HCC-2998 colon
HCT-116 colon = system: HCT-116 colon
HCT-15 colon = system: HCT-15 colon
HOP-62 NSCLC = system: HOP-62 NSCLC
HS 578T breast = system: HS 578T breast
HT29 colon = system: HT29 colon
K-562 leukemia = system: K-562 leukemia
KM12 colon = system: KM12 colon
LOX IMVI melanoma = system: LOX IMVI melanoma
MCF7 breast = system: MCF7 breast
MDA-MB-231 breast = system: MDA-MB-231 breast
MDA-MB-435 melanoma = system: MDA-MB-435 melanoma
MDA-MB-468 breast = system: MDA-MB-468 breast
MOLT-4 leukemia = system: MOLT-4 leukemia
NCI-H226 lung = system: NCI-H226 lung
NCI-H23 lung = system: NCI-H23 lung
NCI-H322M lung = system: NCI-H322M lung
NCI-H522 lung = system: NCI-H522 lung
NCI/ADR-RES ovarian = system: NCI/ADR-RES ovarian
OVCAR-3 ovarian = system: OVCAR-3 ovarian
OVCAR-4 ovarian = system: OVCAR-4 ovarian
OVCAR-5 ovarian = system: OVCAR-5 ovarian
OVCAR-8 ovarian = system: OVCAR-8 ovarian
PC-3 prostate = system: PC-3 prostate
RXF 393 renal = system: RXF 393 renal
SF-268 CNS = system: SF-268 CNS
SF-295 CNS = system: SF-295 CNS
SF-539 CNS = system: SF-539 CNS
SK-MEL-28 melanoma = system: SK-MEL-28 melanoma
SK-OV-3 ovarian = system: SK-OV-3 ovarian
SN12C renal = system: SN12C renal
SNB-19 CNS = system: SNB-19 CNS
SNB-75 CNS = system: SNB-75 CNS
SR leukemia = system: SR leukemia
SW-620 colon = system: SW-620 colon
T-47D breast = system: T-47D breast
TK-10 renal = system: TK-10 renal
U251 glioblastoma = system: U251 glioblastoma
UACC-62 melanoma = system: UACC-62 melanoma

Compound `Nc1nc(OCc2cc(Br)cs2)c2[nH]cnc2n1` has a GI50 (A498 renal) of 30.3 µM, a TGI (A498 renal) greater than 100 µM and a GI50 (A549 NSCLC) of 42.6 µM. The TGI (A549 NSCLC) was greater than 100 µM, the GI50 (ACHN renal) was 30.2 µM and the TGI (ACHN renal) was greater than 100 µM. For the same compound, the GI50 (BT-549 breast) was 21.8 µM, the TGI (BT-549 breast) was 53.5 µM and the GI50 (CAKI-1 renal) was 25.1 µM. The TGI (CAKI-1 renal) was 86.6 µM, the GI50 (CCRF-CEM leukemia) was 19.4 µM and the TGI (CCRF-CEM leukemia) was 40.3 µM. For the same compound, the GI50 (DU-145 prostate) was 44.7 µM, the TGI (DU-145 prostate) was greater than 100 µM and the GI50 (EKVX NSCLC) was 39.9 µM. It also gave a TGI (EKVX NSCLC) greater than 100 µM, a GI50 (HCC-2998 colon) of 66.7 µM and a TGI (HCC-2998 colon) greater than 100 µM. For the same compound, the GI50 (HCT-116 colon) was 38.4 µM, the TGI (HCT-116 colon) was greater than 100 µM and the GI50 (HCT-15 colon) was 33.9 µM. For the same compound, the TGI (HCT-15 colon) was greater than 100 µM, the GI50 (HOP-62 NSCLC) was 36.7 µM and the TGI (HOP-62 NSCLC) was 99.4 µM. The GI50 (HS 578T breast) was 22.8 µM, the TGI (HS 578T breast) was 61.9 µM and the GI50 (HT29 colon) was 46 µM. The TGI (HT29 colon) was greater than 100 µM, the GI50 (K-562 leukemia) was 27.8 µM and the TGI (K-562 leukemia) was greater than 100 µM. It also gave a GI50 (KM12 colon) of 87.2 µM, a TGI (KM12 colon) greater than 100 µM and a GI50 (LOX IMVI melanoma) of 22.5 µM. The TGI (LOX IMVI melanoma) was 47.8 µM, the GI50 (MCF7 breast) was 32.6 µM and the TGI (MCF7 breast) was greater than 100 µM. For the same compound, the GI50 (MDA-MB-231 breast) was 40.7 µM, the TGI (MDA-MB-231 breast) was greater than 100 µM and the GI50 (MDA-MB-435 melanoma) was 43.1 µM. The TGI (MDA-MB-435 melanoma) was greater than 100 µM, the GI50 (MDA-MB-468 breast) was 16.9 µM and the TGI (MDA-MB-468 breast) was 47.5 µM. It also gave a GI50 (MOLT-4 leukemia) of 17.3 µM, a TGI (MOLT-4 leukemia) of 37.5 µM and a GI50 (NCI-H226 lung) of 45.9 µM. For the same compound, the TGI (NCI-H226 lung) was 96.9 µM, the GI50 (NCI-H23 lung) was 42.4 µM and the TGI (NCI-H23 lung) was greater than 100 µM. The GI50 (NCI-H322M lung) was 30.7 µM, the TGI (NCI-H322M lung) was 80.3 µM and the GI50 (NCI-H522 lung) was 27.6 µM. The TGI (NCI-H522 lung) was greater than 77 µM, the GI50 (NCI/ADR-RES ovarian) was 53.7 µM and the TGI (NCI/ADR-RES ovarian) was greater than 100 µM. For the same compound, the GI50 (OVCAR-3 ovarian) was 61.8 µM, the TGI (OVCAR-3 ovarian) was greater than 100 µM and the GI50 (OVCAR-4 ovarian) was greater than 78.7 µM. It also gave a TGI (OVCAR-4 ovarian) greater than 100 µM, a GI50 (OVCAR-5 ovarian) greater than 95.3 µM and a TGI (OVCAR-5 ovarian) greater than 100 µM. The GI50 (OVCAR-8 ovarian) was 45.9 µM, the TGI (OVCAR-8 ovarian) was greater than 100 µM and the GI50 (PC-3 prostate) was 74 µM. It also gave a TGI (PC-3 prostate) greater than 100 µM, a GI50 (RXF 393 renal) of 24.5 µM and a TGI (RXF 393 renal) of 62.7 µM. For the same compound, the GI50 (SF-268 CNS) was 32.1 µM, the TGI (SF-268 CNS) was greater than 84.9 µM and the GI50 (SF-295 CNS) was 48.7 µM. It also gave a TGI (SF-295 CNS) greater than 100 µM, a GI50 (SF-539 CNS) of 44.2 µM and a TGI (SF-539 CNS) greater than 100 µM. It also gave a GI50 (SK-MEL-28 melanoma) greater than 100 µM, a TGI (SK-MEL-28 melanoma) greater than 100 µM and a GI50 (SK-OV-3 ovarian) of 29.1 µM. The TGI (SK-OV-3 ovarian) was 74.7 µM, the GI50 (SN12C renal) was 29 µM and the TGI (SN12C renal) was greater than 100 µM. It also gave a GI50 (SNB-19 CNS) of 70 µM, a TGI (SNB-19 CNS) greater than 100 µM and a GI50 (SNB-75 CNS) of 29.7 µM. It also gave a TGI (SNB-75 CNS) of 85.4 µM, a GI50 (SR leukemia) of 8.96 µM and a TGI (SR leukemia) of 25.2 µM. For the same compound, the GI50 (SW-620 colon) was 67.4 µM, the TGI (SW-620 colon) was greater than 100 µM and the GI50 (T-47D breast) was 23.4 µM. It also gave a TGI (T-47D breast) of 63.5 µM, a GI50 (TK-10 renal) of 30.5 µM and a TGI (TK-10 renal) greater than 100 µM. It also gave a GI50 (U251 glioblastoma) of 31.3 µM, a TGI (U251 glioblastoma) greater than 95.1 µM and a GI50 (UACC-62 melanoma) of 31.2 µM. It also gave a TGI (UACC-62 melanoma) greater than 100 µM.
